For series [1], the target named is Kv11.1 (hERG) ion channel (Homo sapiens (Human), UniProt Q12809). Format: cell-based. Conditions: ratio of hERG Ki (patch clamp) to pERK IC50 in KYSE520. As for the experimental part: Inhibition of the ion channel hErg (or Kv11.1) current causes QT interval prolongation resulting in potentially fatal ventricular tachyarrhythmia called Torsade de Pointes.
hERG ion channel activity was assessed using a patch clamp technique in stable Kv11.1 (hERG) transfected human embryonic kidney cell line (HEK293). Whole cell recordings were carried out with an automated patch clamp device Patchliner™ from Nanion Technologies, Munich following manufacturer recommendation. Different concentrations of the test compound or reference, quinidine, were applied to whole cells suspension and current was measured using a pulse pattern with fixed amplitudes.
(In general: The hERG channel carries a current that helps repolarise heart muscle cells.)

The target of series [2] is Full length SHP2 protein (Recombinant Human SHP-2) (Homo sapiens, UniProt Q06124). The series is described as follows: SHP2 biochemical assay (DiFMUP substrate, activating peptide IRSI_2pY). As to the method:
The inhibition of SHP2 by compounds of the invention was monitored using the surrogate substrate DiFMUP after protein activation by a peptide bearing two appropriately spaced phosphotyrosine. […] The generation of the DiFMU product by activated SHP2 was monitored through Fluorescence measurement with a PerkinElmer Envision reader.
The inhibitor dose response curves were analyzed with Genedata Screener.

Series [3] concerns the target T1, auto-activated mutant protein SHP2 E76K (Homo sapiens (Human), UniProt Q06124, E76K). The series is described as follows: SHP2 E76K mutant biochemical assay with activating peptide IRSI_2pY. The following applies: SHP2 E76K mutant with activating peptide IRSI_2pY 140 nM; read-out: SHP-2 E76Z IC50 peptide. As for the experimental part:
(§1) The inhibition of SHP2 by compounds of the invention was monitored using the surrogate substrate DiFMUP after protein activation by a peptide bearing two appropriately spaced phosphotyrosine. Full length SHP2 protein (Recombinant HumanSHP-2, E. coli derived Ser2Arg593, N-terminal 6His tag from R&D systems; […]) was incubated with activating peptide, IRSI_2pY (New England Peptide, 140 nM) and DiFMUP (molecular probes, 80 uM) at RT in buffer (HEPES pH 7.2 60 mM, DDT 5 mM, KCl 75 mM, NaCl 75 mM, EDTA 1 mM, Tween 20 0.05%) in presence of compound (10 concentrations range, top concentration 50 μM) for 60 min. The generation of the DiFMU product by activated SHP2 was monitored through Fluorescence measurement with a PerkinElmer Envision reader.
(§2) A selection of compounds has been tested in a biochemical assay using same conditions as described in example 3, but with an auto-activated mutant protein SHP2 E76K with and without the addition of the activating peptide IRSI_2pY (New England Peptide, 140 nM).

Series [4] addresses T1, auto-activated mutant protein SHP2 E76K. In words: SHP2 E76K mutant biochemical assay without activating peptide. Conditions: no activating peptide, read-out: SHP-2 E76Z IC50 No peptide. As for the experimental part:
as §1, §2

Series [5] relates to pERK level in KYSE520 cells. The series is described as follows: p-Erk cellular assay in KYSE520 (Mesoscale). The following applies: 2 h incubation, read-out: pERK1/2 in KYSE520 IC50. The format is cell-based. As for the experimental part: (§3) p-Erk Cellular Assay in MDA-MB-468 and KYSE520:
(§4) The effect of SHP2 inhibitors on pERK level was assessed using phospho-specific antibody using Mesoscale quantification platform. For measuring change in pERK levels using mesoscale, 30,000 cells of MDA MB468 and KYSE520 cells were plated in 96-well tissue culture treated plate in 175 ul volume of media. After an overnight incubation at 37° C., various SHP2 inhibitors were added in different concentration to each well maintaining duplicate wells across plates and incubated with compounds for 2 h at 37° C. followed by a wash with ice cold PBS buffer. The cells were then lysed in lysis buffer and processed and analyzed for p-ERK/ERK as per manufacturer's instructions (Mesoscale discovery, cat No. K15107D-3).

Series [6] deals with pERK level in MDA-MB-468 cells. The series is described as follows: p-Erk cellular assay in MDA-MB-468 (Mesoscale). The following applies: 2 h incubation, read-out: pERK1/2 in MDA-MB-468 IC50. Format: cell-based. As for the experimental part: as §3, §4
Setting [7] is: DiFMUP substrate, activating peptide IRSI_2pY, 60 min at RT, read-out: SHP-2 Biochemical assay IC50.

Structures can show the parent of a compound that is named as a salt. Where two headings read alike, the source gives them in different places.

Full length SHP2 protein (Recombinant Human SHP-2), sequence (Q06124 2-593 limits assumed): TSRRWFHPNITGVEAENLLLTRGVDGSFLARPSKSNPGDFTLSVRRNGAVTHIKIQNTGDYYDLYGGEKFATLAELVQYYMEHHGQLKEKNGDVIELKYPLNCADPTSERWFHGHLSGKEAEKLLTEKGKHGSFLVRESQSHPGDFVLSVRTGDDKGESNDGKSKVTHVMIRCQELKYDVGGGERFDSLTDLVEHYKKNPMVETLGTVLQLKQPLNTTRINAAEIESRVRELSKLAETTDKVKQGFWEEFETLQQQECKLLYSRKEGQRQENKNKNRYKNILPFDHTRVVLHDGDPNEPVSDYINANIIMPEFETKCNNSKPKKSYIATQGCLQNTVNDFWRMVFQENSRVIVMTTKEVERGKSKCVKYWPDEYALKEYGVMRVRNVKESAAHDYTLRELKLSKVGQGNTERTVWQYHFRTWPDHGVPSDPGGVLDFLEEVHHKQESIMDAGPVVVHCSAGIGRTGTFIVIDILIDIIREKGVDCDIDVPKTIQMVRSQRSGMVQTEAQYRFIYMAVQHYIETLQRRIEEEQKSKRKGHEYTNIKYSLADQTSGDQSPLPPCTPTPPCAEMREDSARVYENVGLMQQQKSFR
Kv11.1 (hERG) ion channel, sequence (Q12809 whole entry): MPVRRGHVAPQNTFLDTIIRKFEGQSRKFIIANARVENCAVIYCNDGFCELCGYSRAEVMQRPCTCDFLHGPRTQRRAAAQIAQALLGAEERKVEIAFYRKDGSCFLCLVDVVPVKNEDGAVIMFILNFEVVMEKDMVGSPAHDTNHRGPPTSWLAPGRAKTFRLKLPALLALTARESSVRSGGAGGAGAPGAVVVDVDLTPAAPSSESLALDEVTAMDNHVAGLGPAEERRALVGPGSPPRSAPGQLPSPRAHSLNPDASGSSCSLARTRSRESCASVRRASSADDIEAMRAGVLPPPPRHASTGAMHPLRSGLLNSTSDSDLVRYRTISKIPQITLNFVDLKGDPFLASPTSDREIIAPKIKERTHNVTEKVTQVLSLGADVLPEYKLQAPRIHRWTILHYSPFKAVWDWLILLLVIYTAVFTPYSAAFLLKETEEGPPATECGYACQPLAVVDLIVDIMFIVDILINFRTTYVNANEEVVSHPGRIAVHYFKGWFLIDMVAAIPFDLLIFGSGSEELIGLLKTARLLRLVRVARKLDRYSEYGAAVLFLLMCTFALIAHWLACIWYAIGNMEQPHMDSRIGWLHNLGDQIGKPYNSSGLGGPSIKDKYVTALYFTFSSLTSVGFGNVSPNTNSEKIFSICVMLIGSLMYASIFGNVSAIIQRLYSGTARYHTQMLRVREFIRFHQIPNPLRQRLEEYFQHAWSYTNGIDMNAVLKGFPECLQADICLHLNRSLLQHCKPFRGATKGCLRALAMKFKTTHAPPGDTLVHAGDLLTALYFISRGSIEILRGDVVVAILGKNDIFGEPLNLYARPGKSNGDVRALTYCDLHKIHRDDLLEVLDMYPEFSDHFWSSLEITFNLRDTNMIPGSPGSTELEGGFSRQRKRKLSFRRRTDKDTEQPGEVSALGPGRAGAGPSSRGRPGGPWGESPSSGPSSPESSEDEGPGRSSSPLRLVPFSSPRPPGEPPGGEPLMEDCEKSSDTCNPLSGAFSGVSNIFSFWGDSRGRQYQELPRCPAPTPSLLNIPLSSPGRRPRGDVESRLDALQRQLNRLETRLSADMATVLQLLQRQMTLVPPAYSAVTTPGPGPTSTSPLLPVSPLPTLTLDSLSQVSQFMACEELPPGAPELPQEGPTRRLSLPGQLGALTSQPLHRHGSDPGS
T1 sequence (Q06124 whole entry E76K): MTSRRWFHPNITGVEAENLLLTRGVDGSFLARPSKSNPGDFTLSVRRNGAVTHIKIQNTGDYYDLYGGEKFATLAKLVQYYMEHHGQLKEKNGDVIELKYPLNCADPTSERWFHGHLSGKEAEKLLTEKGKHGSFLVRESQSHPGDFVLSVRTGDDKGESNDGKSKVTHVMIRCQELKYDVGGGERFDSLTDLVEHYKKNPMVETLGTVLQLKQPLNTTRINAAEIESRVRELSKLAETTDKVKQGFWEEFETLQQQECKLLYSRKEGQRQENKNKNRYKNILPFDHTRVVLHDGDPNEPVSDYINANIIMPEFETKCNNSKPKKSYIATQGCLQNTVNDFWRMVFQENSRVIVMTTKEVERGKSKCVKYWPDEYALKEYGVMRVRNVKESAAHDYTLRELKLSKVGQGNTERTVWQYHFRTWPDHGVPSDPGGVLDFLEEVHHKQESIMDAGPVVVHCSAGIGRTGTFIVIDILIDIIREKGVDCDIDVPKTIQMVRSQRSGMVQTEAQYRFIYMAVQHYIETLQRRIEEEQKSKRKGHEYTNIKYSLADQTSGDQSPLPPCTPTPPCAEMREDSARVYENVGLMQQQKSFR

On to `Cc1nc(N2CCC3(CC2)Cc2ccccc2[C@H]3N)nc(C(N)=O)c1-c1cccc(Cl)c1Cl` (atropisomer, axis not shown; (M)) [Compound 119, (M)-2-[(1S)-1-amino-1,3-dihydrospiro[indene-2,4′-piperidin]-1′-yl]-5-(2,3-dichlorophenyl)-6-methylpyrimidine-4-carboxamide], for which the “Split between hErg and cell activity Ki(patch Clamp)/IC50 (KYSE)” value in series [1] came to 97.
As to `NC(=O)c1nc(N2CCC3(CC2)Cc2ccccc2[C@H]3N)nc(N)c1-c1cccc(Cl)c1Cl` (single isomer, unassigned) [Compound 117], the IC50 was found to be 0.001 µM in series [2] (setting [7]); 0.0004 µM in series [2] (wild-type SHP-2 with activating peptide, read-out: SHP-2 IC50 peptide); 0.0011 µM in series [3]; 0.0005 µM in series [4]. The “Split between hErg and cell activity Ki(patch Clamp)/IC50 (KYSE)” value in series [1] is more than 50.
As to `NC(=O)c1nc(N2CCC3(CC2)Cc2scnc2[C@H]3N)nc(N)c1-c1cccc(Cl)c1Cl` [Compound 121, 6-amino-2-[(4S)-4-amino-4,6-dihydrospiro[cyclopenta[d][1,3]thiazole-5,4′-piperidin]-1′-yl]-5-(2,3-dichlorophenyl)pyrimidine-4-carboxamide], the IC50 was determined as 0.016 µM in series [5] (Homo sapiens, KYSE-520, 2 h) and 0.002 µM in series [2] (setting [7]). Further, in series [1], the “Split between hErg and cell activity Ki(patch Clamp)/IC50 (KYSE)” value is on record as more than 600.
In the same order, the values of `NC(=O)c1nc(N2CCC3(CC2)Oc2ccccc2[C@H]3N)nc(N)c1-c1cccc(Cl)c1Cl` [Compound 123, 6-amino-2-((R)-3-amino-3H-spiro[benzofuran-2,4′-piperidin]-1′-yl)-5-(2,3-dichlorophenyl)pyrimidine-4-carboxamide di-hydrochloride] are 0.058 µM, 0.015 µM and more than 100.
As to `CC1(N)CCN(c2nc(N)c(-c3cccc(Cl)c3Cl)c(C(N)=O)n2)CC1` [Compound No. 3, 6-Amino-2-(4-amino-4-methyl-piperidin-1-yl)-5-(2,3-dichlorophenyl)-pyrimidine-4-carboxylic Acid Amide], the IC50 in series [5] was determined as 0.754 µM; in series [2] (setting [7]) it was 0.16 µM; in series [6] it was 0.346 µM. Further, the “Split between hErg and cell activity Ki(patch Clamp)/IC50 (KYSE)” value in series [1] is listed as more than 14.
As to `C[C@@H]1OCC2(CCN(c3nc(N)c(-c4cccc(Cl)c4Cl)c(C(N)=O)n3)CC2)[C@@H]1N` [Compound No. 5, 6-amino-2-[(3S,4S)-4-amino-3-methyl-2-oxa-8-azaspiro[4.5]decan-8-yl]-5-(2,3-dichlorophenyl)pyrimidine-4-carboxamide], the IC50 in series [5] (Homo sapiens, KYSE-520, 2 h) came out at 1.09 µM; in series [2] (setting [7]), 0.072 µM; in series [6] (Homo sapiens, MDA-MB-468, 2 h) it was 1.01 µM. Further, the “Split between hErg and cell activity Ki(patch Clamp)/IC50 (KYSE)” value in series [1] was more than 10.
